Measurements: article PMC5917010, “Structural basis for GPR40 allosteric agonism and incretin stimulation” (Nature Communications, 2018)

Legend:
[1] = molecular target: T1, human GPR40 (A2 site) (Homo sapiens, UniProt O14842); experiment: A2 site radioligand binding with [3H]-AM-1638; conditions: Supplementary Table 1; read-out: Human GPR40 Binding to A2 Ki
T1 construct: full length recombinant human GPR40 (GPR40) cDNA; expressed in transfected cells; host or cells: HEK 293, stably transfected; crude cell surface membranes
T1 sequence (O14842 whole entry): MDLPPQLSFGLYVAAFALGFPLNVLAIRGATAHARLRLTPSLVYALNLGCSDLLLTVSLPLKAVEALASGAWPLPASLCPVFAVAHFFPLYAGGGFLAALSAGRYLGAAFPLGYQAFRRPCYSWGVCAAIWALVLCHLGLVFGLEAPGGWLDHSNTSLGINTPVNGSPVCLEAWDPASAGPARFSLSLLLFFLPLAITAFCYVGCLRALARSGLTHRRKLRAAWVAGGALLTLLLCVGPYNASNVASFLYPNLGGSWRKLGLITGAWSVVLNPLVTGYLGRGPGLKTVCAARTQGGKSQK
Description: (§1) Crude cell surface membranes were prepared from human embryonic kidney 293 (HEK 293) cells stably transfected (for the wild type) or transiently transfected (for the mutants and corresponding wild type) with full length recombinant human GPR40 (GPR40) cDNA, using differential centrifugation methods.
A2 Site Binding. 10 µL of compound diluted in 100% DMSO and 90 µL of Assay Buffer (50 mM Tris-HCl, pH 7.5, 10 mM CaCl2, 10 mM MgCl2, 0.1% w/v Bacitracin, 2.5% w/v dextran charcoal-treated FBS) were added to a deep 96-well polypropylene assay plate (Beckman Coulter). Two hundred μl of [^3H]-AM-1638 (84 Ci/mmol, Quotient Bioresearch Radiochemicals, Ltd.; 0.5 nM final concentration) and 200 µL of GPR40 membranes (5 µg/well), both diluted in Assay Buffer, were added to the assay plate, followed by a 1 min shake and a 1 h incubation at room temperature (22 °C).
(§2) Assays were terminated by filtration through GF/C glass fiber filtermats (Perkin Elmer) presoaked in 50 mM Tris–HCl, pH 7.5, using a Mach III cell harvester (TomTec). Filtermats were washed two times with 5 mL of ice-cold 50 mM Tris–HCl, pH 7.5 buffer, dried 1 h in a convection oven at 60 °C and embedded with Meltilex A solid scintillant (Perkin Elmer). Radioactivity was determined as counts per min (cpm) using a Trilux Microbeta plate scintillation counter (Perkin Elmer).

[2] = molecular target: Rat GPR40 (Rattus norvegicus, UniProt Q8K3T4); experiment: Rat GPR40 b-arrestin; assay type: cell-based
Rat GPR40, sequence (Q8K3T4 whole entry): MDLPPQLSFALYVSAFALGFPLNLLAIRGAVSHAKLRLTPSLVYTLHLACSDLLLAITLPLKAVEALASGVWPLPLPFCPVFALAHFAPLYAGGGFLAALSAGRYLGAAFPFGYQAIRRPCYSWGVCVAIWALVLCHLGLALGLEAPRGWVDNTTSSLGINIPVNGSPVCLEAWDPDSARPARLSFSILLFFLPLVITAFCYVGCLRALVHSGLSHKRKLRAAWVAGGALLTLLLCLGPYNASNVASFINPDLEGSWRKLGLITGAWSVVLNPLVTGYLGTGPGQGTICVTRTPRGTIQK

[3] = molecular target: T2, human PPARgama (Homo sapiens, UniProt P37231); experiment: human PPARgamma binding; conditions: Supplementary Table 1
T2 sequence (P37231 1-505): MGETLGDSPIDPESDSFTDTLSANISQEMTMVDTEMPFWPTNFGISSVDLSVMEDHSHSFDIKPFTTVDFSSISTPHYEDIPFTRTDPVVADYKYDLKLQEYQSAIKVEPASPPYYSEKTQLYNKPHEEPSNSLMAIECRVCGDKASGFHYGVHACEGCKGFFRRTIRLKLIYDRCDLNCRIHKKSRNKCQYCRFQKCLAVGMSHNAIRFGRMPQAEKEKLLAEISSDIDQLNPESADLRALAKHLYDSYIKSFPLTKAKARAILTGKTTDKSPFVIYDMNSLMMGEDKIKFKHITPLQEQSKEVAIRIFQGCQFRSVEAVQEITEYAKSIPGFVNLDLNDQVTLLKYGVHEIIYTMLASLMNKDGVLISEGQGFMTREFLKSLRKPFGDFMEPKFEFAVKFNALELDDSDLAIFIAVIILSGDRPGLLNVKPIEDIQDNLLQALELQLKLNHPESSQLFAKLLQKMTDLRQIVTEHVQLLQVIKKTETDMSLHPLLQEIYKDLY

[4] = molecular target: T3, human GPR40 (Homo sapiens, UniProt O14842); experiment: Human GPR40 Calcium (Supplementary Table 1); assay type: cell-based
T3 construct: HEK293 cells stably overexpressing full length human GPR40; expressed in transfected cells
T3 sequence (O14842 whole entry): as the sequence (O14842 whole entry) above

[5] = molecular target: T4, human GPR40 (A1 site) (Homo sapiens, UniProt O14842); experiment: A1 site radioligand binding with [3H]-TAK-875; conditions: Supplementary Table 1
T4 construct: full length recombinant human GPR40 (GPR40) cDNA; expressed in transfected cells; host or cells: HEK 293, stably transfected; crude cell surface membranes
T4 sequence (O14842 whole entry): as above
Description: as §1
A1 Site Binding. 10 µL of compound diluted in 100% DMSO and 90 µL of Assay Buffer (50 mM Tris-HCl, pH 7.5, 5 mM CaCl2, 5 mM MgCl2, 0.1% w/v fatty acid-free BSA) were added to a deep 96-well polypropylene assay plate (Beckman Coulter).
as §2

[6] = molecular target: T3, human GPR40; experiment: Human GPR40 IP1; assay type: cell-based
[7] = molecular target: T5, Human GPR120 (Homo sapiens, UniProt Q5NUL3); experiment: Human GPR120 Calcium (FLIPR); assay type: cell-based; conditions: Supplementary Table 1
T5 sequence (Q5NUL3 1-361): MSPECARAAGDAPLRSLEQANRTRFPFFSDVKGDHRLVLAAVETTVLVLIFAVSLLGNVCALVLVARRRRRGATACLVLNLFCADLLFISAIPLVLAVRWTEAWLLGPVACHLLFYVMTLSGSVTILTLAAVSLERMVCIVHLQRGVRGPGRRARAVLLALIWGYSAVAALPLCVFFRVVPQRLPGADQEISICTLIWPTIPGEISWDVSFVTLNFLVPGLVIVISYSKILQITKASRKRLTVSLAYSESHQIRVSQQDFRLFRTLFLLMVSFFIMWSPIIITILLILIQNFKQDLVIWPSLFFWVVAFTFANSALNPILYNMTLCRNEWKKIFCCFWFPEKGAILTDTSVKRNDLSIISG

[8] = molecular target: T6, human PPARalpha (Homo sapiens, UniProt Q07869); experiment: human PPARalpha binding; conditions: Supplementary Table 1
T6 sequence (Q07869 1-468): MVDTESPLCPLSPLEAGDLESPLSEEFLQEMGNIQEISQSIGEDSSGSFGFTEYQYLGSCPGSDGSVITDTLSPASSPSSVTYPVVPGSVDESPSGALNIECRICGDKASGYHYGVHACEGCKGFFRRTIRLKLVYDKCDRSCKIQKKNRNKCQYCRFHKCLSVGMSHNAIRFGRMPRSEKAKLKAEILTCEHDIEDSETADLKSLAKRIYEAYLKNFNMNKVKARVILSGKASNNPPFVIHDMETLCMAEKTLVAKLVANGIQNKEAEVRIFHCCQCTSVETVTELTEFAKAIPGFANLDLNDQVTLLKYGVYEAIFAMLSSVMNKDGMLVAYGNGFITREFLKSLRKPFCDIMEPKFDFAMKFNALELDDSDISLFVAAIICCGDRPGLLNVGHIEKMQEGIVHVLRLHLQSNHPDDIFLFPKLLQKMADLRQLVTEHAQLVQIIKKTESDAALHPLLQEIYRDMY

[9] = molecular target: T7, human PPARdelta (Homo sapiens, UniProt Q03181); experiment: human PPARdelta binding; conditions: Supplementary Table 1
T7 sequence (Q03181 1-441): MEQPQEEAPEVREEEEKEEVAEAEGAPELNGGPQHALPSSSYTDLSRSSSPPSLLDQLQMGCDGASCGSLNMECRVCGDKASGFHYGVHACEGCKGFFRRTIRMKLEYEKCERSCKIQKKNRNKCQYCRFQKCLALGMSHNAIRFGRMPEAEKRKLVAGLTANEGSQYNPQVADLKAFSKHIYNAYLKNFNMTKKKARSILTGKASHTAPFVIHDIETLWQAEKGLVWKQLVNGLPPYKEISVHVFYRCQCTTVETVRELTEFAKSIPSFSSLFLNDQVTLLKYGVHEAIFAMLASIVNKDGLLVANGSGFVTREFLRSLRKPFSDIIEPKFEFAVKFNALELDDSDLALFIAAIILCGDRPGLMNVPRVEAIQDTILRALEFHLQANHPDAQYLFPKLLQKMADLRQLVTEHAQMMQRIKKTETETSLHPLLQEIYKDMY

[10] = molecular target: Mouse GPR40 (Mus musculus, UniProt Q76JU9); experiment: Mouse GPR40 b-arrestin; assay type: cell-based
Mouse GPR40, sequence (Q76JU9 whole entry): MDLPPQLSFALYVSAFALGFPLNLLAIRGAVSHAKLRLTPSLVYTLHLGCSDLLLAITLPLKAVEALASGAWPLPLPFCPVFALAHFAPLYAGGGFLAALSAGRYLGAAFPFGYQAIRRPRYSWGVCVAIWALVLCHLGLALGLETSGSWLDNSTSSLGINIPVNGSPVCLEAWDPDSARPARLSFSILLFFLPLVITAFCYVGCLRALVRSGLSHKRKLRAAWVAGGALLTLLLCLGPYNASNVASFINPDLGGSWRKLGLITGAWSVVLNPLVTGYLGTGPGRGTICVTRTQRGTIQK

[11] = molecular target: T3, human GPR40; experiment: Human GPR40 b-arrestin; assay type: cell-based
[12] = molecular target: T5, Human GPR120; experiment: Human GPR120 binding; conditions: Supplementary Table 1
[13] = molecular target: T8, Mouse GPR120 (Mus musculus, UniProt Q7TMA4); experiment: Mouse GPR120 b-arrestin; assay type: cell-based; conditions: Supplementary Table 1
T8 sequence (Q7TMA4 1-361): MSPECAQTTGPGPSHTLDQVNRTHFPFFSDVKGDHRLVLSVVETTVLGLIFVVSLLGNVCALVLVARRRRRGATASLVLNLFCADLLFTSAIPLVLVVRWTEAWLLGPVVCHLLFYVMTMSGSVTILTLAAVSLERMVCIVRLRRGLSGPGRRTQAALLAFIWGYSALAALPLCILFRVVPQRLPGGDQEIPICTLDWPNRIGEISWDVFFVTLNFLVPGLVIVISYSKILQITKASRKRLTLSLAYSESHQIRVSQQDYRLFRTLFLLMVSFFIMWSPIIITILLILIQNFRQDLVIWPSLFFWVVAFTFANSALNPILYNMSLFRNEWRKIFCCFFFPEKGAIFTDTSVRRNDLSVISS

[14] = molecular target: T5, Human GPR120; experiment: Human GPR120 b-arrestin; assay type: cell-based; conditions: Supplementary Table 1
[15] = system: GPR40 KO mice; experiment: OGTT in GPR40 KO mice; assay type: in vivo, mouse; conditions: high dose of compound 1
Description: Eight to thirteen week old male C57BL/6 or KO mice were used. The day before the study, at 1600 hours, animals were transferred into clean cages and food was removed. The following morning (~0800 hours), mice were randomized by block randomization to treatment groups (N = 5–7 per group) so each group had similar mean and standard deviation of body weight and blood glucose. […] Animals were dosed with vehicle (0.5% MC/0.25% Tween-80) or the test article by oral gavage. Group allocations were not blinded from the experimenters who collected the data. After 60 min compound treatment animals were then given an oral gavage of glucose (2 g/kg). At 0, 15, 30, 60, and 120 min post oral glucose, two glucose readings via glucometers were obtained. The average of two glucose readings was reported at each time point. Data were expressed as mean±standard error (s.e.m.). Blood glucose values were analyzed using ANOVA with repeated measures. Cook’s distance was also calculated from linear regression. All animals were included in the analysis with their individual averaged Cook’s distance < 1. Dunnett’s comparison was performed at each time point by R program. Significance is denoted at p < 0.05.

[16] = system: GPR40 knock-out (KO) mice; experiment: IPGTT in GPR40 knock-out mice; assay type: in vivo, mouse; conditions: high dose of compound 1
Description: Nine to ten week old male ICR mice (Envigo) and GPR40 KO mice (Taconic) were used. The day before an IPGTT (~1600), animals were fasted in clean cages. The following morning (~0800), animals were randomized on fasting glucose and body weight (N = 6 per group). Mice were orally administered a test article or vehicle 60 min prior to an intraperitoneal (IP) injection of glucose (2g/kg). Blood glucose levels were determined by a glucometer from tail bleeds taken at 0, 15, 30, 60, and 120 min after the glucose challenge. An average of two readings were reported at each time point. Also, blood samples were collected into serum tubes at 0, 3, 6, and 15 min post glucose injection for insulin measurement. Serum tubes were centrifuged at 3000g for 5 min and serum transferred into 96-well plates for insulin analysis by a Mesoscale rat/mouse insulin assay.

Molecule	Ki [1]	EC50 [2]	Emax [2]	Ki [3]	EC50 [4]	Emax [4]	Ki [5]	EC50 [6]	Emax [6]	EC50 [7]	Ki [8]	IC50 [9]	EC50 [10]	Emax [10]	EC50 [11]	Emax [11]	also measured
COc1ccc(F)c(-c2ccc(COc3cccc([C@@H](CC(=O)O)C4CC4)c3)cc2C2=CCCC2(C)C)c1 [AM-1638]	1.4 nM	105 nM	113%	> 10000 nM	1.7 nM	98%	> 6910 nM	0.25 nM	197%	2870 nM	3170 nM	> 10000 nM	22.7 nM	112%	16 nM	153%	Emax [7]: 63%
CC#C[C@@H](CC(=O)O)c1ccc(OCc2ccc(CN3CCC4(C=Cc5ccccc54)CC3)cc2)cc1 [LY2881835]	> 3720 nM	2 nM	124%	> 10000 nM	9.1 nM	62%	4.7 nM	1.24 nM	162%	> 50000 nM	> 10000 nM	> 10000 nM	0.8 nM	133%	8.7 nM	137%	Ki [12]: > 100000 nM; EC50 [13]: > 50000 nM; EC50 [14]: > 100000 nM
N[C@@H](CC(=O)N1CCn2c(nnc2C(F)(F)F)C1)Cc1cc(F)c(F)cc1F [sitagliptin, reference compound]																	blood glucose in OGTT, GPR40 KO [15]: respond to glucose lowering
semaglutide [reference compound]																	glucose lowering in IPGTT, GPR40 KO [16]: can be triggered; insulin secretion in IPGTT, GPR40 KO [16]: can be triggered
